Source: patent US20090192135A1, “Human Niemann Pick C1-Like 1 Gene (NPC1L1) Polymorphisms and Methods of Use Thereof” (SCHERING CORPORATION, priority 2005, published 2009)

Target: T1, NPC1L1 (Homo sapiens, UniProt Q9UHC9)
T1 construct: from tissue; host or cells: small intestine of hypercholesterolemic patients (in vivo, clinical trial)
T1 sequence (Q9UHC9 22-1332 isoform Q9UHC9-2 limits assumed): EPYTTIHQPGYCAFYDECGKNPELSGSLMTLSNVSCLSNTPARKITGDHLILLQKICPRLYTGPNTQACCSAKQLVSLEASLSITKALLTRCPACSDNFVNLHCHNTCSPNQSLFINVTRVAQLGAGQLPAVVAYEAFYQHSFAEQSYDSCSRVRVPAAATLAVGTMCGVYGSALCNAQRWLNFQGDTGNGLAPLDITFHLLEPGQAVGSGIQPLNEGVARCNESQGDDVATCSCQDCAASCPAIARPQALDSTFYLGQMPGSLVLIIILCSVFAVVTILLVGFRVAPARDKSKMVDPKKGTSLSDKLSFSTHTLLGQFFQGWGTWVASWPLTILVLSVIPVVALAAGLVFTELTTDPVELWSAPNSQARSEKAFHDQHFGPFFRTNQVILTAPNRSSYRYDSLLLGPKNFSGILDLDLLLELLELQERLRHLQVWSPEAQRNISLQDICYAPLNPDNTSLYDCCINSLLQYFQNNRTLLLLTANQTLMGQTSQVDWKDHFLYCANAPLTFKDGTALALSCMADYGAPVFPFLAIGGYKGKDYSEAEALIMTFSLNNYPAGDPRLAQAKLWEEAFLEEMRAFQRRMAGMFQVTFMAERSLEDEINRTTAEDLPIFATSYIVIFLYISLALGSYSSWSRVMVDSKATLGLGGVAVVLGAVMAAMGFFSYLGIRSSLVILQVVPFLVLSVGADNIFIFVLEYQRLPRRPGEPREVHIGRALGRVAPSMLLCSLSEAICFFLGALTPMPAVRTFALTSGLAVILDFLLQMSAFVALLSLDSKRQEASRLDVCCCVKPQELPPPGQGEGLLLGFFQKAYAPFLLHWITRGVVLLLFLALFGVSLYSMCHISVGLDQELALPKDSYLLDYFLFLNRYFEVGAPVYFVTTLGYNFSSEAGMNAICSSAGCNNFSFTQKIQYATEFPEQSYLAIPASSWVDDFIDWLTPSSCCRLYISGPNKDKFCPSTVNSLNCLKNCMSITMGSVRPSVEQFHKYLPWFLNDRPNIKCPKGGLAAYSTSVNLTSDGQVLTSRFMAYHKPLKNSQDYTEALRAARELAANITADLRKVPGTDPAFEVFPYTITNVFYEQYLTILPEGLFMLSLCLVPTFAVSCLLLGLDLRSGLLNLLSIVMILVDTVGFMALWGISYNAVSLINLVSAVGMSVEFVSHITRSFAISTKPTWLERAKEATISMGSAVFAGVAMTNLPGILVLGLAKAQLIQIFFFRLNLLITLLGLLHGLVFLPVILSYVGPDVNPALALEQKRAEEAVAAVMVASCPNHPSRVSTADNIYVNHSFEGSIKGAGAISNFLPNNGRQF
Test: EASE trial: LDL-C response to six weeks of ezetimibe 10 mg/day added to stable statin therapy, analysed by NPC1L1 genotype/haplotype
Type: in vivo
Conditions: for Least-Squares (adjusted) Mean (Stderr), percent change in LDL-C: extreme responders; for Least-Squares adjusted Mean (n/Std error), percent change from baseline LDL-C: EASE cohort N = 1195; for Least-Squares (adjusted) Mean (n,/Stderr), percent change in LDL-C: Extreme responders (<10th or >90th percentile) N = 239
Procedure: Genotyping assays were developed for a number of novel and known common variants with minor allele frequencies greater than 4% that were identified in Example 1. Genetic association analysis was performed with these SNPs in a clinical trial cohort (EASE), described below, to assess whether DNA sequence variants in NPC1L1 are associated with changes in the levels of a variety of plasma cholesterol components in hypercholesterolemia patients in response to pharmacotherapy with ezetimibe and statins as compared to patients treated with a statin and placebo.
To study whether variations in NPC1L1 were associated with response to ezetimibe added to statin therapy, a study population was derived from the Ezetimibe Add-On to Statin for Effectiveness (EASE) Trial (Pearson et al., (2005) Mayo Clinic Proceedings, In Press). The EASE trial was a community-based, randomized, double-blind, placebo controlled study to evaluate the effects of six weeks of ezetimibe, 10 mg/day, added on to a stable regimen of statin therapy, on lipid biomarkers in hypercholesterolemic patients whose LDL-C levels exceeded the National Cholesterol Education Program (NCEP) Adult Treatment Panel (ATP) m guidelines for their coronary heart disease (CHD) risk category. At enrollment, patients taking a stable dose of statin (any dose, any brand) and following a NCEP Step 1 diet or similar cholesterol-lowering diet for at least six weeks prior to entry into the study were randomized to either the ezetimibe (n=2020, 2009 received the treatment) or placebo (n=1010, 1009 received the treatment) arm. From the ezetimibe group, 1208 patients provided consent for genomic analysis and were included in this study. A series of clinical measures corresponding to various cardiovascular risk factors were measured from samples obtained from all trial participants and are summarized by Pearson et al., supra.
Twenty one SNPs from Table 4 (Example 1) were converted to valid genotyping assays, thirteen of which had allele frequencies greater than 2% in all EASE sub-populations. TaqMan Allelic Discrimination assays (Livak, (1999) Genet. Anal. 14:143-49) were performed using Primer Express software and the Assay-by-Design service offered by Applied Biosystems (Foster City, Calif.). […] All probe/primer sets were designed to function using universal reaction and cycling conditions.
The twenty one selected SNPs were genotyped in 1,208 individuals participating in the ezetimibe+statin treatment arm of the EASE trial. A series of clinical measures corresponding to various cardiovascular risk factors were taken on all trial participants (Tables 4a-d). Thirteen selected SNPs genotyped in the EASE cohort were confirmed as having common allele frequencies in this cohort, i.e., an allele frequency of greater than 2% in all EASE sub-populations. […] This could reflect the increased power in the larger EASE cohort to make such detections (see Table 5).
The mean (SD) for total plasma cholesterol, HDL cholesterol (HDL-C), and LDL cholesterol (LDL-C) was 211.0 (34.9), 48.6 (11.5), and 129.1 (30.0) mg/dL, respectively (Pearson et al., supra). […] The distribution of these measurements was similar in the subjects enrolled in this genetic study (Pearson et al., supra). […] No significant associations were found between these response predictive variables and any of the tagging SNPs.
Genetic association analysis was carried out in the EASE cohort with LDL-C response to ezetimibe treatment considered as the primary outcome variable. Individual SNPs, haplotypes, and haplotype combinations were the principal explanatory variables used in the analyses. General linear models were used to estimate the effects of genotypes, haplotypes, and diplotypes on the LDL-C response phenotype. Baseline LDL-C levels, sex, age, and race were investigated to determine if they gave rise to significant effects. Baseline LDL-C levels associated with significant effects in all models and were therefore included in all analyses. […]

[1] = Caucasian ethnic subgroup, g.-18C > A C/A

- Least-Squares (adjusted) Mean (Stderr), percent change in LDL-C [1]: −32.81 (3.83) %
- Least-Squares (adjusted) Mean (Stderr), percent change in LDL-C (Caucasian ethnic subgroup, g.1679C > G C/G): −26.61 (3.58) %
- Least-Squares (adjusted) Mean (Stderr), percent change in LDL-C (Caucasian ethnic subgroup, g.1679C > G G/G): −39.00 (10.81) %
- Least-Squares adjusted Mean (Std error), percent change from baseline LDL-C (Caucasian ethnic subgroup, g.-18C > A A/A): −27.19 (3.49) %
- Least-Squares adjusted Mean (Std error), percent change from baseline LDL-C [1]: −28.22 (0.96) %
- Least-Squares adjusted Mean (Std error), percent change from baseline LDL-C (Caucasian ethnic subgroup, g.-18C > A C/C): −24.34 (0.60) %
- Odds Ratio, extreme responder association with SNP (Caucasian ethnic subgroup, g.-18C > A, 95% CI 1.27 to 4.39): 2.36
- Least-Squares adjusted Mean (Std error), percent change from baseline LDL-C (Caucasian ethnic subgroup, g.-133A > G A/A): −26.59 (0.73) %
- Least-Squares adjusted Mean (Std error), percent change from baseline LDL-C (Caucasian ethnic subgroup, g.-133A > G A/G): −24.78 (0.77) %
- Least-Squares adjusted Mean (Std error), percent change from baseline LDL-C (Caucasian ethnic subgroup, g.-133A > G G/G): −22.80 (1.72) %
- Least-Squares adjusted Mean (Std error), percent change from baseline LDL-C (Caucasian ethnic subgroup, g.1679C > G (L272L) C/C): −24.66 (0.65) %
- Least-Squares adjusted Mean (Std error), percent change from baseline LDL-C (Caucasian ethnic subgroup, g.1679C > G (L272L) C/G): −26.58 (0.85) %
- Least-Squares adjusted Mean (Std error), percent change from baseline LDL-C (Caucasian ethnic subgroup, g.1679C > G (L272L) G/G): −28.18 (2.51) %
- Least-Squares adjusted Mean (Std error), percent change from baseline LDL-C (Caucasian ethnic subgroup, g.19224G > A A/A): −31.64 (6.56) %
- Least-Squares adjusted Mean (Std error), percent change from baseline LDL-C (Caucasian ethnic subgroup, g.19224G > A G/A): −24.81 (1.31) %
- Least-Squares adjusted Mean (Std error), percent change from baseline LDL-C (Caucasian ethnic subgroup, g.19224G > A G/G): −25.56 (0.55) %
- Least-Squares adjusted Mean (Std error), percent change from baseline LDL-C (Caucasian ethnic subgroup, g.19259T > C C/C): −24.95 (2.01) %
- Least-Squares adjusted Mean (Std error), percent change from baseline LDL-C (Caucasian ethnic subgroup, g.19259T > C T/C): −25.61 (0.84) %
- Least-Squares adjusted Mean (Std error), percent change from baseline LDL-C (Caucasian ethnic subgroup, g.19259T > C T/T): −25.44 (0.67) %
- Least-Squares adjusted Mean (Std error), percent change from baseline LDL-C (Caucasian ethnic subgroup, g.28650A > G A/A): −24.63 (0.64) %
- Least-Squares adjusted Mean (Std error), percent change from baseline LDL-C (Caucasian ethnic subgroup, g.28650A > G A/G): −26.90 (0.87) %
- Least-Squares adjusted Mean (Std error), percent change from baseline LDL-C (Caucasian ethnic subgroup, g.28650A > G G/G): −26.52 (2.57) %
- Least-Squares adjusted Mean (n/Std error), percent change from baseline LDL-C (g.-18C > A A/A): −27.27 (22/3.61) %
- Least-Squares adjusted Mean (n/Std error), percent change from baseline LDL-C (g.-18C > A C/A): −27.85 (298/0.98) %
- Least-Squares adjusted Mean (n/Std error), percent change from baseline LDL-C (g.-18C > A C/C): −24.16 (875/0.57) %
- Least-Squares adjusted Mean (n/Std error), percent change from baseline LDL-C (g.-133A > G A/A): −25.92 (629/0.68) %
- Least-Squares adjusted Mean (n/Std error), percent change from baseline LDL-C (g.-133A > G A/G): −24.58 (477/0.78) %
- Least-Squares adjusted Mean (n/Std error), percent change from baseline LDL-C (g.-133A > G G/G): −22.56 (89/1.80) %
- Least-Squares adjusted Mean (n/Std error), percent change from baseline LDL-C (g.1679C > G C/C): −24.50 (723/0.63) %
- Least-Squares adjusted Mean (n/Std error), percent change from baseline LDL-C (g.1679C > G C/G): −25.77 (417/0.83) %
- Least-Squares adjusted Mean (n/Std error), percent change from baseline LDL-C (g.1679C > G G/G): −28.77 (55/2.29) %
- Least-Squares adjusted Mean (n/Std error), percent change from baseline LDL-C (g.19224G > A A/A): −31.64 (/6.94) %
- Least-Squares adjusted Mean (n/Std error), percent change from baseline LDL-C (g.19224G > A G/A): −25.07 (/1.34) %
- Least-Squares adjusted Mean (n/Std error), percent change from baseline LDL-C (g.19224G > A G/G): −25.11 (/0.53) %
- Least-Squares adjusted Mean (n/Std error), percent change from baseline LDL-C (g.19259T > C C/C): −26.38 (/1.98) %
- Least-Squares adjusted Mean (n/Std error), percent change from baseline LDL-C (g.19259T > C T/C): −25.01 (/0.82) %
- Least-Squares adjusted Mean (n/Std error), percent change from baseline LDL-C (g.19259T > C T/T): −25.07 (/0.64) %
- Least-Squares adjusted Mean (n/Std error), percent change from baseline LDL-C (g.28650A > G A/A): −24.40 (/0.60) %
- Least-Squares adjusted Mean (n/Std error), percent change from baseline LDL-C (g.28650A > G A/G): −26.50 (/0.89) %
- Least-Squares adjusted Mean (n/Std error), percent change from baseline LDL-C (g.28650A > G G/G): −27.19 (/2.65) %
- mean LDL-C change from baseline (EASE cohort, heterozygous for the minor allele of g.−18C>A (298/1195)): 27.8%
- mean LDL-C change from baseline (EASE cohort, homozygous for the common allele of g.−18C>A (n=875/1195)): 24.2%
- mean change in LDL-C (EASE cohort, homozygous for the minor allele of g.−18C>A (n=22/1195)): 27.3%
- Least-Squares (adjusted) Mean (n,/Stderr), percent change in LDL-C (g.-18C > A C/A): −33.98 (62/4.05) %
- Least-Squares (adjusted) Mean (n,/Stderr), percent change in LDL-C (g.-18C > A C/C): −16.85 (177/2.40) %
SMILES: O=C1[C@H](CC[C@H](O)c2ccc(F)cc2)[C@@H](c2ccc(O)cc2)N1c1ccc(F)cc1 [ezetimibe, 1-(4-fluorophenyl)-3(R)-[3-(4-fluorophenyl)-3(S)-hydroxypropyl]-4(S)-(4-hydroxyphenyl)-2-azetidinone]
